Results from paper PMC4824452, “Substrate complexes of human dipeptidyl peptidase III reveal the mechanism of enzyme inhibition” (Scientific Reports, 2016).

Legend:
[1] = biological target: T1, hDPP III, wild-type enzyme (Homo sapiens, UniProt Q9NY33); test: Fluorometric activity assay, release of β-naphthylamine, wild-type enzyme; type: biochemical; conditions: wild-type enzyme 20 pM; substrate 1 μM to 200 μM; 37 °C, 50 mM Tris-HCl pH 8.0, 100 mM NaCl; fluorescence ex 320 nm, em 420 nm
T1 sequence (Q9NY33 1-737): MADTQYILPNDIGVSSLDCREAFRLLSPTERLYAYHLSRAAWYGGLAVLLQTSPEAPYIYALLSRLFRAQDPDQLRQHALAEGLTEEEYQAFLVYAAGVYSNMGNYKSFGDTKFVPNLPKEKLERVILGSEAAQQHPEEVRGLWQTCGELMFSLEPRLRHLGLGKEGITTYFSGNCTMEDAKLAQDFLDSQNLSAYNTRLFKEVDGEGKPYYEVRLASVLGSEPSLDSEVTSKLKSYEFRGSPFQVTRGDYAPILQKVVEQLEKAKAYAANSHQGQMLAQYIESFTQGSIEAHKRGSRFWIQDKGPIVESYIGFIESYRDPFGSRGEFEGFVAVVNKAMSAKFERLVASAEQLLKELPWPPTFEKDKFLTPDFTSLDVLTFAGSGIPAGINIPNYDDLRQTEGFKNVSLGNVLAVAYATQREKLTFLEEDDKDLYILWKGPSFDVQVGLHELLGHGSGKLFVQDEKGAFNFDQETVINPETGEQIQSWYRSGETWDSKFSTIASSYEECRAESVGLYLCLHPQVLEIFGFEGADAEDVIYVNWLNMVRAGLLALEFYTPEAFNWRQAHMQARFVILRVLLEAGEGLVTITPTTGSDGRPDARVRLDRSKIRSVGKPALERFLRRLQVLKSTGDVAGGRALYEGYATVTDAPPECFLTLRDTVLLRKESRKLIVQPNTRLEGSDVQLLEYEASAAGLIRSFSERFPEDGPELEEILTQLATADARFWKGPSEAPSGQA
Description: (§1) The enzymatic activities of the wild-type enzyme and the active smFRET construct (still containing residue Glu-451) were determined using a fluorometric assay, which measures the release of β-naphthylamine upon cleavage of the synthetic substrate Arg-Arg-β-naphthylamide (excitation at 320 nm and emission at 420 nm)[41]. Kinetic parameters were determined at 37 °C in 50mM Tris-HCl buffer pH 8.0, containing 100 mM NaCl. The protein concentrations were 20 pM (wild-type enzyme) and 50 pM (smFRET construct). The substrate concentration was varied from 1 μM to 200 μM. The initial rate of fluorescence increase was monitored continuously for 5 min and was converted into the velocity of the reaction using a calibration curve for β-naphthylamine. Non-linear regression using the program GraphPad Prism (www.graphpad.com) yielded the values for vmax and KM.

[2] = biological target: T2, active smFRET construct of hDPP III (still containing residue Glu-451) (Homo sapiens, UniProt Q9NY33, C19S/C519S/C654S/E207C/S491C); test: Fluorometric activity assay, release of β-naphthylamine, active smFRET construct; type: biochemical; conditions: active smFRET construct 50 pM; substrate 1 μM to 200 μM; 37 °C, 50 mM Tris-HCl pH 8.0, 100 mM NaCl; fluorescence ex 320 nm, em 420 nm
T2 construct: His6-tag with TEV protease cleavage site (N, cleaved yes); made in house; host or cells: E. coli BL21-CodonPlus (DE3) RIL
T2 sequence (Q9NY33 1-726 C19S/E207C/S491C/C519S/C654S limits assumed): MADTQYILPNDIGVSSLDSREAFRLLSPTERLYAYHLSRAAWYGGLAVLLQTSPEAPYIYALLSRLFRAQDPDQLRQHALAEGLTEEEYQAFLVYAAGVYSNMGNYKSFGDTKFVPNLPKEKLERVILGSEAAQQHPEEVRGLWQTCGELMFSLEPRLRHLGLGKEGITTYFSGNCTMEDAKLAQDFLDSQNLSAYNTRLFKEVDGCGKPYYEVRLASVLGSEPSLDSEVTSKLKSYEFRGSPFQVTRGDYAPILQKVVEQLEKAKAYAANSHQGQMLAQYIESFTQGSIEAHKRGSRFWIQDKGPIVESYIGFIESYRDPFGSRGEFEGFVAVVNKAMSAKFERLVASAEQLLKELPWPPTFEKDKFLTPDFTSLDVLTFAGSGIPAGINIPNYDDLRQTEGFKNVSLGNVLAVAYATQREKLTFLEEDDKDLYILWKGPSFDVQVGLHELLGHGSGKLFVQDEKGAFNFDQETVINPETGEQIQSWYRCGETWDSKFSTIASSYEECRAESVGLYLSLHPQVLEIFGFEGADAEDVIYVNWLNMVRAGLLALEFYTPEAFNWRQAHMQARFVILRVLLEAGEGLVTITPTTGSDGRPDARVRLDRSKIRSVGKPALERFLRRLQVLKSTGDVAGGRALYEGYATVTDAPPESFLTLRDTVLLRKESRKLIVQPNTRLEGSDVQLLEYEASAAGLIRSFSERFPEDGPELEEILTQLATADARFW
Description: as §1

rat DPP III = tested on: rat DPP III; parameters: method as in PMID 12895665; conditions: cited from earlier work
human DPP III = conditions: cited from earlier work
[3] = tested on: partially purified DPP III from monkey brain; parameters: method as in PMID 10822105; conditions: cited from earlier work
hDPP III [4] = conditions: cited from earlier work
From the text: The octapeptide angiotensin-II (DRVYIHPF) is a potent vasoconstrictor and is involved in regulating mammalian blood pressure.

hDPP III [5] = tested on: hDPP III; parameters: method as in 2 sources, ref 22 = [22]; PMID 10822105; doi:10.1016/s0196-9781(00)00174-1; Yamamoto Y. , Hashimoto J. , Shimamura M. , Yamaguchi T. & Hazato T. Characterization of tynorphin, a potent endogenous inhibitor of dipeptidyl peptidaseIII . Peptides 21 , 503 – 508 ( 2000 ). 1082210 ||| ref 1 = [1]; PMID 21794094; doi:10.1111/j.1742-4658.2011.08275.x; Prajapati S. C. & Chauhan S. S. Dipeptidyl peptidase III: a multifaceted oligopeptide N-end cutter . FEBS J. 278 , 3256 – 3276 ( 2011 ). 21794094 10.1111/j.1742-4658.2011.08275.x; conditions: cited from earlier work
inactive hDPP3 variant = biological target: inactive hDPP3 variant; parameters: method as in PMID 22493238; conditions: cited from earlier work
[6] = biological target: hDPP3(1-726) E451A, inactive hDPP III variant used for ITC (human) (UniProt Q9NY33); test: ITC; 800 μM angiotensin II in the syringe into 40 μM enzyme in the cell; 25 °C; 50 mM Tris-HCl pH 8.0, 100 mM NaCl; one-binding-site model
[7] = biological target: T3, human dipeptidyl peptidase III (1-726), inactive E451A variant, smFRET construct (C19S, C519S, C654S, E207C, … (human, UniProt Q9NY33 1-726, E451A | C19 exchanged to serine | C519 exchanged to serine | C654 exchanged to …)); test: crystal structure; co-crystallisation; protein 8 mg mL^-1, protein:ligand about 1:30, sitting drop vapour diffusion at 20 °C, microseeding with crystals of the angiotensin II complex; conditions: both partners purified
T3 construct: human dipeptidyl peptidase III, residues 1-726 (lacks 11 C-terminal residues), with E451A and five surface exchanges made for smFRET; Vector pET28-MHL; His6-tag removed with TEV protease, so residues of the cleavage site may remain at the N-terminus; also called hDPP III; hDPP3; source: E. coli BL21-CodonPlus (DE3) RIL, purified (Ni-NTA, ResourceQ anion exchange, TEV cleavage, Superdex 200); not …
T3 sequence (looked up): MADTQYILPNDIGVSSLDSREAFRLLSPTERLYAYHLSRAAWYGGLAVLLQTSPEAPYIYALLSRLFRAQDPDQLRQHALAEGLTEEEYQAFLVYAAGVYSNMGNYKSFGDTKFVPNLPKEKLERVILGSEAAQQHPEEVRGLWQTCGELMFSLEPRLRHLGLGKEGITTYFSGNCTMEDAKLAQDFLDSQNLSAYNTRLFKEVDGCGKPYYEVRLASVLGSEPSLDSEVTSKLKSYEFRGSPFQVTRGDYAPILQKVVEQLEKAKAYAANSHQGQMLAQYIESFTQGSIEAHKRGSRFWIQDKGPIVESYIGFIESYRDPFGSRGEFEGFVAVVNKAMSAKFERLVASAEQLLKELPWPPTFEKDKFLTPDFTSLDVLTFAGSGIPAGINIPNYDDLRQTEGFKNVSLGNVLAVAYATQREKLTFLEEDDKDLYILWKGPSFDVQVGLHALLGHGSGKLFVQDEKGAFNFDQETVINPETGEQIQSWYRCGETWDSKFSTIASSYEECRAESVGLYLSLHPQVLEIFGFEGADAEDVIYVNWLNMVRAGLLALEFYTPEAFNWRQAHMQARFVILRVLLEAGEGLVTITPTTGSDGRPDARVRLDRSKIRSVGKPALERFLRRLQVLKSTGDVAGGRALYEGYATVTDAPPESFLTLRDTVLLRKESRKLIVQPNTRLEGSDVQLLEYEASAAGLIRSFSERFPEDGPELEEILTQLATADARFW

Molecule “Arg-Arg-β-naphthylamide [synthetic substrate releasing β-naphthylamine upon cleavage]” has a Km [1] of 24 µM, a kcat [1] of 24 s⁻¹ and a Km [2] of 30 µM. For the same molecule, the kcat [2] was 28 s⁻¹.

In the case of IVYPW, the “relative inhibitory strength (in words)” value (rat DPP III; compared with tynorphin, presumably ref 23) is listed as “a stronger inhibitor than tynorphin”, the “inhibition (in words)” value (rat DPP III; rat DPP III) is listed as “nanomolar affinity” and the “inhibition of the enzyme (in words)” value (human DPP III) is listed as “described as an inhibitor of the enzyme”.

In the case of “VVYPW [tynorphin, synthetic opioid peptide, a derivative of spinorphin]”, the “inhibition (in words)” value [3] is given as “shown to inhibit partially purified DPP III from monkey brain”, the “inhibition of human DPP III (in words)” value (human DPP III) is given as “described as an inhibitor of human DPP III” and the “character of binding (thermodynamic, in words)” value (hDPP III [4]) is given as “endothermic process driven by entropic changes”. The “period over which the peptide appears to be hydrolysed” value (hDPP III [5]) was “about 24 hours”.

For “YGGFL [Leu-enkephalin, endogenous opioid neurotransmitter (YGGFL)]”, the Kd (inactive hDPP3 variant) is listed as 3600 nM, the “cleavage by hDPP III (in words)” value (hDPP III [5]) is listed as “shown to be cleaved by hDPP III” and the “in vitro substrate of hDPP III (in words)” value (shortened to “in vitro substrate”) (hDPP III [5]) is listed as “known in vitro substrates of hDPP III”.

In the case of “YGGFM [Met-enkephalin, endogenous opioid neurotransmitter (YGGFM)]”, the “cleavage by hDPP III (in words)” value (hDPP III [5]) is given as “shown to be cleaved by hDPP III” and the “in vitro substrate” value (hDPP III [5]) is given as “known in vitro substrates of hDPP III”.

For “YPFF-NH2 [endomorphin-2, opioid peptide with amidated C-terminus]”, the “in vitro substrate” value (hDPP III [5]) is listed as “known in vitro substrates of hDPP III”.

Work on angiotensin-II (peptide) yielded a Kd [6] of 1640 nM and a dH [6] of 3.64 kcal/mol.

B1: Met-enkephalin (peptide)
peptide: YGGFM
notes: Met-enkephalin, endogenous opioid pentapeptide cut from proenkephalin-A; also called YGGFM
B1: binds [7].

B2: Leu-enkephalin (peptide)
peptide: YGGFL
notes: Leu-enkephalin, endogenous opioid pentapeptide cut from proenkephalin-A (also held in prodynorphin); also called YGGFL
B2: binds [7].

B3: synthetic opioid peptide IVYPW (peptide)
peptide: IVYPW
notes: synthetic opioid peptide, similar to tynorphin (VVYPW), a derivative of spinorphin
B3: binds [7].
